In PubChem BioAssay AID220 (DTP/NCI, 2004):
Results filed as inconclusive are left out.

Test system: CD8F1 mice, subcutaneous mammary adenocarcinoma, T/C%
Assay: NCI In Vivo Anticancer Drug Screen. Data for tumor model Mammary Adenocarcinoma CD8F1 (subcutaneous) in CD8F1
Settings: higher = larger tumour
Procedure: The antitumor activity of compounds was measured in mice bearing transplantable tumors. Survival or tumor size were measured and the results are expressed as the measurement made in the treated group (T) divided by the measurement made in the vehicle treated control group (C). The tumor model used in this assay is Mammary Adenocarcinoma CD8F1 (subcutaneous) in CD8F1

`O=c1[nH]cc(F)c(=O)[nH]1` was tested, and the T/C (endpoint: mean tumor weight (est.), dose: 50.0 mg/kg/injection, schedule: Q07DX004 (ip), vehicle: saline) was 28 % of control, the T/C (endpoint: mean tumor weight (est.), dose: 50.0 mg/kg/injection, schedule: Q07DX004 (iv), vehicle: saline) was 25 % of control and the T/C (endpoint: mean tumor weight (est.), dose: 100.0 mg/kg/injection, schedule: Q07DX003 (ip), vehicle: saline) was 15 % of control. The T/C (endpoint: mean tumor weight (est.), dose: 100.0 mg/kg/injection, schedule: Q07DX004 (ip), vehicle: saline) was 2 % of control, the T/C (endpoint: mean tumor weight (est.), dose: 100.0 mg/kg/injection, schedule: Q07DX004 (iv), vehicle: saline) was 3 % of control and the T/C (endpoint: mean tumor weight (est.), dose: 115.0 mg/kg/injection, schedule: Q07DX003 (ip), vehicle: saline) was 14 % of control. For the same molecule, the T/C (endpoint: mean tumor weight (est.), dose: 130.0 mg/kg/injection, schedule: Q07DX003 (ip), vehicle: saline) was 5 % of control, the T/C (endpoint: mean tumor weight, dose: 5.0 mg/kg/injection, schedule: Q01DX009 (ip), vehicle: saline) was 159 % of control and the T/C (endpoint: mean tumor weight, dose: 10.0 mg/kg/injection, schedule: Q01DX009 (ip), vehicle: saline) was 199 % of control. The T/C (endpoint: mean tumor weight, dose: 20.0 mg/kg/injection, schedule: Q01DX009 (ip), vehicle: saline) was 4 % of control, the T/C (endpoint: mean tumor weight, dose: 25.0 mg/kg/injection, schedule: Q07DX006 (ip), vehicle: saline) was 105 % of control and the T/C (endpoint: mean tumor weight, dose: 25.0 mg/kg/injection, schedule: Q07DX007 (ip), vehicle: saline) was 92 % of control. For the same molecule, the T/C (endpoint: mean tumor weight, dose: 50.0 mg/kg/injection, schedule: Q07DX006 (ip), vehicle: saline) was 10 % of control, the T/C (endpoint: mean tumor weight, dose: 50.0 mg/kg/injection, schedule: Q07DX007 (ip), vehicle: saline) was 11 % of control and the T/C (endpoint: median tumor weight (est.), dose: 5.0 mg/kg/injection, schedule: Q01DX005 (ip), vehicle: saline) was 176 % of control. The T/C (endpoint: median tumor weight (est.), dose: 10.0 mg/kg/injection, schedule: Q01DX005 (ip), vehicle: saline) was 20 % of control, the T/C (endpoint: median tumor weight (est.), dose: 15.0 mg/kg/injection, schedule: Q04DX005 (ip), vehicle: saline) was 17 % of control and the T/C (endpoint: median tumor weight (est.), dose: 15.0 mg/kg/injection, schedule: Q07DX005 (ip), vehicle: saline) was 4 % of control. The T/C (endpoint: median tumor weight (est.), dose: 20.0 mg/kg/injection, schedule: Q01DX005 (ip), vehicle: saline) was 49 % of control, the T/C (endpoint: median tumor weight (est.), dose: 25.0 mg/kg/injection, schedule: Q01DX005 (ip), vehicle: saline) was 39 % of control and the T/C (endpoint: median tumor weight (est.), dose: 25.0 mg/kg/injection, schedule: Q04DX005 (ip), vehicle: saline) was 30 % of control. The T/C (endpoint: median tumor weight (est.), dose: 25.0 mg/kg/injection, schedule: Q07DX005 (ip), vehicle: saline) was 19 % of control, the T/C (endpoint: median tumor weight (est.), dose: 27.0 mg/kg/injection, schedule: Q07DX005 (ip), vehicle: saline) was 86 % of control and the T/C (endpoint: median tumor weight (est.), dose: 30.0 mg/kg/injection, schedule: Q04DX005 (ip), vehicle: saline) was 24 % of control. For the same molecule, the T/C (endpoint: median tumor weight (est.), dose: 30.0 mg/kg/injection, schedule: Q07DX005 (ip), vehicle: saline) was 5 % of control, the T/C (endpoint: median tumor weight (est.), dose: 37.5 mg/kg/injection, schedule: Q01DX005 (ip), vehicle: saline) was 14 % of control and the T/C (endpoint: median tumor weight (est.), dose: 37.5 mg/kg/injection, schedule: Q04DX005 (ip), vehicle: saline) was 24 % of control. For the same molecule, the T/C (endpoint: median tumor weight (est.), dose: 37.5 mg/kg/injection, schedule: Q07DX005 (ip), vehicle: saline) was 27 % of control, the T/C (endpoint: median tumor weight (est.), dose: 40.0 mg/kg/injection, schedule: Q07DX005 (ip), vehicle: saline) was 48 % of control and the T/C (endpoint: median tumor weight (est.), dose: 50.0 mg/kg/injection, schedule: Q04DX005 (ip), vehicle: saline) was 9 % of control. For the same molecule, the T/C (endpoint: median tumor weight (est.), dose: 50.0 mg/kg/injection, schedule: Q07DX005 (ip), vehicle: saline) was 2 % of control, the T/C (endpoint: median tumor weight (est.), dose: 60.0 mg/kg/injection, schedule: Q07DX005 (ip), vehicle: saline) was 18 % of control and the T/C (endpoint: median tumor weight (est.), dose: 89.0 mg/kg/injection, schedule: Q01DX001 (ip), vehicle: saline) was 30 % of control. For the same molecule, the T/C (endpoint: median tumor weight (est.), dose: 90.0 mg/kg/injection, schedule: Q07DX005 (ip), vehicle: saline) was 9 % of control, the T/C (endpoint: median tumor weight (est.), dose: 133.0 mg/kg/injection, schedule: Q01DX001 (ip), vehicle: saline) was 22 % of control and the T/C (endpoint: median tumor weight (est.), dose: 200.0 mg/kg/injection, schedule: Q01DX001 (ip), vehicle: saline) was 21 % of control. The T/C (endpoint: median tumor weight (est.), dose: 270.0 mg/kg/injection, schedule: Q01DX001 (ip), vehicle: saline) was 17 % of control, the T/C (endpoint: median tumor weight change, dose: 25.0 mg/kg/injection, schedule: Q01DX001 (ip), vehicle: saline) was 103 % of control and the T/C (endpoint: median tumor weight change, dose: 50.0 mg/kg/injection, schedule: Q01DX001 (ip), vehicle: saline) was 61 % of control. For the same molecule, the T/C (endpoint: median tumor weight change, dose: 100.0 mg/kg/injection, schedule: Q01DX001 (ip), vehicle: saline) was 33 % of control.
In the case of `C/C=C(\C)c1cc(=O)c2c(C)cc3c(c2o1)C(=O)c1c(O)c(C2CC(C)(N(C)C)C(OC(C)=O)C(C)O2)cc(C2CC(N(C)C)C(O)C(C)O2)c1C3=O` (stereo not drawn), the T/C (endpoint: median tumor weight (est.), dose: 0.15 mg/kg/injection, schedule: Q07DX005 (ip), vehicle: saline) is reported as 157 % of control, the T/C (endpoint: median tumor weight (est.), dose: 0.31 mg/kg/injection, schedule: Q07DX005 (ip), vehicle: saline) is reported as 100 % of control and the T/C (endpoint: median tumor weight (est.), dose: 0.62 mg/kg/injection, schedule: Q07DX005 (ip), vehicle: saline) is reported as 116 % of control. For the same molecule, the T/C (endpoint: median tumor weight change, dose: 1.56 mg/kg/injection, schedule: Q01DX001 (ip), vehicle: suspension in saline) was 164 % of control, the T/C (endpoint: median tumor weight change, dose: 3.12 mg/kg/injection, schedule: Q01DX001 (ip), vehicle: suspension in saline) was 153 % of control and the T/C (endpoint: median tumor weight change, dose: 6.25 mg/kg/injection, schedule: Q01DX001 (ip), vehicle: suspension in saline) was 116 % of control. The T/C (endpoint: median tumor weight change, dose: 12.5 mg/kg/injection, schedule: Q01DX001 (ip), vehicle: suspension in saline) was 82 % of control and the T/C (endpoint: median tumor weight change, dose: 25.0 mg/kg/injection, schedule: Q01DX001 (ip), vehicle: suspension in saline) was 64 % of control.
In the case of `COC(=O)Nc1cn2cc(C(=O)c3cccs3)ccc2n1`, the T/C (endpoint: median tumor weight change, dose: 62.5 mg/kg/injection, schedule: Q01DX001 (ip), vehicle: Klucel (hydroxypropylcellulose) (HPC)) is reported as 99 % of control, the T/C (endpoint: median tumor weight change, dose: 125.0 mg/kg/injection, schedule: Q01DX001 (ip), vehicle: Klucel (hydroxypropylcellulose) (HPC)) is reported as 71 % of control and the T/C (endpoint: median tumor weight change, dose: 250.0 mg/kg/injection, schedule: Q01DX001 (ip), vehicle: Klucel (hydroxypropylcellulose) (HPC)) is reported as 69 % of control.
`CCC1(O)CC2CN(CCc3c([nH]c4ccccc34)C(C(=O)OC)(c3cc4c(cc3OC)N(C)C3C(O)(C(N)=O)C(O)C5(CC)C=CCN6CCC43C65)C2)C1` (stereo not drawn) (tested in a mixture with another compound) was tested, and the T/C (endpoint: median tumor weight (est.), dose: 0.12 mg/kg/injection, schedule: Q07DX005 (ip), vehicle: saline) was 87 % of control, the T/C (endpoint: median tumor weight (est.), dose: 0.25 mg/kg/injection, schedule: Q07DX005 (ip), vehicle: saline) was 74 % of control and the T/C (endpoint: median tumor weight (est.), dose: 0.5 mg/kg/injection, schedule: Q07DX005 (ip), vehicle: saline) was 51 % of control. For the same molecule, the T/C (endpoint: median tumor weight (est.), dose: 1.0 mg/kg/injection, schedule: Q07DX005 (ip), vehicle: saline) was 16 % of control.
For `CN1N=C(N)c2cn(C3OC(COP(=O)(O)O)C(O)C3O)c3ncnc1c23` (stereo not drawn), the T/C (endpoint: median tumor weight (est.), dose: 9.37 mg/kg/injection, schedule: Q07DX005 (ip), vehicle: other) was 46 % of control, the T/C (endpoint: median tumor weight (est.), dose: 12.5 mg/kg/injection, schedule: Q07DX005 (ip), vehicle: water) was 121 % of control and the T/C (endpoint: median tumor weight (est.), dose: 18.75 mg/kg/injection, schedule: Q07DX005 (ip), vehicle: other) was 52 % of control. For the same molecule, the T/C (endpoint: median tumor weight (est.), dose: 25.0 mg/kg/injection, schedule: Q07DX005 (ip), vehicle: water) was 54 % of control, the T/C (endpoint: median tumor weight (est.), dose: 37.5 mg/kg/injection, schedule: Q07DX005 (ip), vehicle: other) was 25 % of control and the T/C (endpoint: median tumor weight (est.), dose: 50.0 mg/kg/injection, schedule: Q07DX005 (ip), vehicle: water) was 25 % of control. For the same molecule, the T/C (endpoint: median tumor weight (est.), dose: 75.0 mg/kg/injection, schedule: Q07DX005 (ip), vehicle: other) was 16 % of control, the T/C (endpoint: median tumor weight (est.), dose: 100.0 mg/kg/injection, schedule: Q07DX005 (ip), vehicle: water) was 7 % of control and the T/C (endpoint: median tumor weight (est.), dose: 150.0 mg/kg/injection, schedule: Q07DX005 (ip), vehicle: other) was 5 % of control.
For `O=NN(CCCl)C(=O)NC1CCC(=O)NC1=O` (stereo not drawn), the T/C (endpoint: median tumor weight (est.), dose: 4.0 mg/kg/injection, schedule: Q07DX005 (ip), vehicle: saline with Tween-80) was 49 % of control, the T/C (endpoint: median tumor weight (est.), dose: 8.0 mg/kg/injection, schedule: Q07DX005 (ip), vehicle: saline with Tween-80) was 24 % of control and the T/C (endpoint: median tumor weight (est.), dose: 13.0 mg/kg/injection, schedule: Q07DX005 (ip), vehicle: saline with Tween-80) was 12 % of control. For the same molecule, the T/C (endpoint: median tumor weight (est.), dose: 20.0 mg/kg/injection, schedule: Q07DX005 (ip), vehicle: saline with Tween-80) was 6 % of control.
